Reference: patent publication US20260217711A1, “TRIAZOLOPYRIDINYL ETHER LINKED COMPOUNDS AS KINASE INHIBITORS” (Bristol-Myers Squibb Company, priority 2023, published 2026)
Where two headings read alike, the source gives them in different places.

Key:
[1] = test system: MLKL phosphorylation (pMLKL) in HT29-L23 cells; test: MLKL Phosphorylation High-Content Assay; type: cell-based; settings: necroptosis induced with human TNFα, SMAC mimetic and Z-VAD, 6 h, read-out: LE pMLKL HC IC50
Procedure, shortened: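 HT29-L23 cells incubated 6 h at 37° C before detection of phospho-MLKL by immunostaining with anti-phospho-MLKL antibody (1:1000 in PBS/0.1% BSA, overnight at 4° C). Readout by high-content imaging with compartmental image analysis.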

[2] = target: T1, MDR1 P-glycoprotein (P-gp) (Homo sapiens, UniProt P08183); test: Transporter assay, bi-directional transport, MDCK-MDR1 cells; type: in vitro ADME; settings: basolateral to apical / apical to basolateral, >2 = substrate; for efflux ratio at 2 h, 0.1 uM: human, MDCK-MDR1, 0.1 uM, read-out: PGP (efflux ratio); for PGP (efflux ratio): 0.1 uM, 2 hours
T1 construct: host or cells: MDCK (MDCK-MDR1)
Protocol: (§1) Compounds were assessed as substrates of MDR1 P-glycoprotein (P-gp) and mouse Breast Cancer Resistance Protein (mBcrp) at 0.1 uM, for 2 hours, in bi-directional transport assays using recombinant MDCK cell lines as described previously (Feng et al. Drug Metabolism and Disposition 2008, Vol. 36:268-275). MDCK-MDR1 and MDCK-mBcrp cells were acquired from the National Institutes of Health (Bethesda, MID) and the Netherlands Cancer Institute respectively, and used under license agreement. Data are expressed as efflux ratios, where transport across the cell monolayer in the basolateral to apical direction is divided by transport in the apical to basolateral direction. Efflux ratios >2 indicate the test compound is a substrate of the transporter tested.

[3] = target: T2, mouse Breast Cancer Resistance Protein (mBcrp) (Mus musculus, UniProt Q7TMS5); test: Transporter assay, bi-directional transport, MDCK-mBcrp cells; type: in vitro ADME; settings: basolateral to apical / apical to basolateral, >2 = substrate; for efflux ratio at 2 h, 0.1 uM: mouse, read-out: BCRP (efflux ratio); for BCRP (efflux ratio): 0.1 uM, 2 hours
T2 construct: host or cells: MDCK (MDCK-mBcrp)
T2 sequence (Q7TMS5 1-657): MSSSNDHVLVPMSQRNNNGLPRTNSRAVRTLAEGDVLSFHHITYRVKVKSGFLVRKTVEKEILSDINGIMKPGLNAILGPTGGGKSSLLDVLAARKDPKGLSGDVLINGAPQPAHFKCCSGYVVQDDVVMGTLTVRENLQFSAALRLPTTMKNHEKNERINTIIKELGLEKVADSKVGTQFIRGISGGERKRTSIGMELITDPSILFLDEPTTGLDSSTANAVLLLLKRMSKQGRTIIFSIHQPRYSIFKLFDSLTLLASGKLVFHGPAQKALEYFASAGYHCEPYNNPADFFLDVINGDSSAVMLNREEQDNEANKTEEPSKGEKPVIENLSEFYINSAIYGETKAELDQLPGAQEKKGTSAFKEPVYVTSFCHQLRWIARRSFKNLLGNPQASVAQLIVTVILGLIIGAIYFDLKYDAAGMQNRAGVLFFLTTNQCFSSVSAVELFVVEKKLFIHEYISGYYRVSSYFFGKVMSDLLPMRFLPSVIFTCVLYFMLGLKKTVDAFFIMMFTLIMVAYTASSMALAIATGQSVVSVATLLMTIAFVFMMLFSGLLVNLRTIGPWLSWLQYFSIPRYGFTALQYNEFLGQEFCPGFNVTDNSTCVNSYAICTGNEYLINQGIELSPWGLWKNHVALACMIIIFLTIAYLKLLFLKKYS
Protocol: as §1

[4] = test system: hWB; test: hWB; type: cell-based; settings: printed as "hWB" value in the pMLKL IC50 column; no method given

T1 sequence (P08183 whole entry): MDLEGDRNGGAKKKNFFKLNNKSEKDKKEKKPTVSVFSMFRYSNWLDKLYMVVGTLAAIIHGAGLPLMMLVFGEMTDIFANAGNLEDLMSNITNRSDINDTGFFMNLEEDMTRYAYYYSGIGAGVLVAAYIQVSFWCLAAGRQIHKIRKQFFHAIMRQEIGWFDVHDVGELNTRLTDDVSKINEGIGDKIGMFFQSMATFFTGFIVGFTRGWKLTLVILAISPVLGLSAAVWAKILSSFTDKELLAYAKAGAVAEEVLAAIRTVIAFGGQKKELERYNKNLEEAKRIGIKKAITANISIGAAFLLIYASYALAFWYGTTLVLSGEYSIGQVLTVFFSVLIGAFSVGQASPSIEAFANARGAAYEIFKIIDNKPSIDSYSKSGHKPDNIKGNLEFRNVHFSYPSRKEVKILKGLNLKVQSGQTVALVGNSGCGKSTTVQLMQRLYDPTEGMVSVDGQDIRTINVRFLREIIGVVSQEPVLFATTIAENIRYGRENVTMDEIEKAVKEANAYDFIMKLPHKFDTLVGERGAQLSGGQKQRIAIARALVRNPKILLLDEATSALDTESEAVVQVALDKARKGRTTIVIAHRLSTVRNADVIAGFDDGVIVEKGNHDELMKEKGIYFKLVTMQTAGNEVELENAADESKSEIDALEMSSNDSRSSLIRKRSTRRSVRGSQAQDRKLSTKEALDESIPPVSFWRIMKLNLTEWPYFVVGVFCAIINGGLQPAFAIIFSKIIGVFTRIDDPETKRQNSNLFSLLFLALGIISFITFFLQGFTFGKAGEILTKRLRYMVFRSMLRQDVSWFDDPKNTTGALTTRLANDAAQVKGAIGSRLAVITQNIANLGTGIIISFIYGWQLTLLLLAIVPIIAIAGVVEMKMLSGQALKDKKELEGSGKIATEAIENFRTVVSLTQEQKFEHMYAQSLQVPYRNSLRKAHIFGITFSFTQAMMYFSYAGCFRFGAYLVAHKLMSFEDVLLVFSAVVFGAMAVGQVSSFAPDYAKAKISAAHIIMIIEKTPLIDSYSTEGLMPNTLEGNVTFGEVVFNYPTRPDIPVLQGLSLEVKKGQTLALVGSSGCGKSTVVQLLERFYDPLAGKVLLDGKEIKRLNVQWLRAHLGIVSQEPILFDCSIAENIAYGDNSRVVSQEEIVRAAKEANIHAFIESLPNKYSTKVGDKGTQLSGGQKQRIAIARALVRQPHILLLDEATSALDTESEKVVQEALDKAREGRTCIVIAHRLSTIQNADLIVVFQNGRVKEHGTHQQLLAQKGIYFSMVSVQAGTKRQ

| Structure (SMILES) | efflux ratio at 2 h, 0.1 uM [2] | efflux ratio at 2 h, 0.1 uM [3] | PGP (efflux ratio) [2] | BCRP (efflux ratio) [3] | IC50 [1] [nM] | IC50 [4] [nM] | IC50 ([1]; Homo sapiens) [nM] |
| --- | --- | --- | --- | --- | --- | --- | --- |
| CC(O)(c1ccc(F)cc1)C(F)(F)CCOc1cccc(-c2ccn3nc(N)nc3c2)c1F (single isomer, unassigned) [Example 2, 5-(3-(2-amino-[1,2,4]triazolo[1,5-a]pyridin-7-yl)-2-fluorophenoxy)-3,3-difluoro-2-(4-fluorophenyl)pentan-2-ol] | 1.8 | 6.2 | – | – | 4 | – | – |
| CC(O)(c1ccc(F)cc1)C(F)(F)CCOc1cccc(-c2ccn3nc(N)nc3c2)c1F (single isomer, unassigned) [Example 3, 5-(3-(2-amino-[1,2,4]triazolo[1,5-a]pyridin-7-yl)-2-fluorophenoxy)-3,3-difluoro-2-(4-fluorophenyl)pentan-2-ol] | – | – | 1.2 | 3.4 | 0.1 | – | – |
| [2H]C([2H])(CC(F)(F)C(C)(O)c1ccc(F)cc1)Oc1cccc(-c2ccn3nc(N)nc3c2)c1F (single isomer, unassigned) [Example 13, 5-(3-(2-amino-[1,2,4]triazolo[1,5-a]pyridin-7-yl)-2-fluorophenoxy)-3,3-difluoro-2-(4-fluorophenyl)pentan-5,5-d2-2-ol] | 1.8 | 3.9 | – | – | 0.1 | – | – |
| CC(O)(c1ccc(F)cn1)C(F)(F)CCOc1c(F)ccc(-c2ccn3nc(N)nc3c2)c1F (single isomer, unassigned) [Example 27, 5-(3-(2-amino-[1,2,4]triazolo[1,5-a]pyridin-7-yl)-2,6-difluorophenoxy)-3,3-difluoro-2-(5-fluoropyridin-2-yl)pentan-2-ol] | 1.1 | 1.6 | – | – | – | 64 | – |
| CC(O)(c1ccc(F)cn1)C(F)(F)CCOc1c(F)ccc(-c2ccn3nc(N)nc3c2)c1F (single isomer, unassigned) [Example 28, 5-(3-(2-amino-[1,2,4]triazolo[1,5-a]pyridin-7-yl)-2,6-difluorophenoxy)-3,3-difluoro-2-(5-fluoropyridin-2-yl)pentan-2-ol] | – | – | – | – | – | 82 | – |
| CC(O)(c1ccc(F)cn1)C(F)(F)CCOc1c(Cl)ccc(-c2ccn3nc(N)nc3c2)c1F (single isomer, unassigned) [Example 31, 5-(3-(2-amino-[1,2,4]triazolo[1,5-a]pyridin-7-yl)-6-chloro-2-fluorophenoxy)-3,3-difluoro-2-(5-fluoropyridin-2-yl)pentan-2-ol] | 5.3 | 1.4 | – | – | 2 | – | – |
| Nc1nc2cc(-c3ccc(F)c(OCCC(F)(F)C(O)c4ccc(F)cn4)c3F)ccn2n1 (single isomer, unassigned) [Example 34, 4-(3-(2-amino-[1,2,4]triazolo[1,5-a]pyridin-7-yl)-2,6-difluorophenoxy)-2,2-difluoro-1-(5-fluoropyridin-2-yl)butan-1-ol] | 2.4 | 7 | – | – | – | – | 8 |
| CC(O)(c1ccccc1)C(F)(F)CCOc1c(F)ccc(-c2ccn3nc(N)nc3c2F)c1F (single isomer, unassigned) [Example 38, 5-(3-(2-amino-8-fluoro-[1,2,4]triazolo[1,5-a]pyridin-7-yl)-2,6-difluorophenoxy)-3,3-difluoro-2-phenylpentan-2-ol] | 2.1 | 5.1 | – | – | – | – | 0.3 |
| CC(O)(c1ccccc1)C(F)(F)CCOc1c(F)ccc(-c2ccn3nc(N)nc3c2)c1F (single isomer, unassigned) [Example 40, 5-(3-(2-amino-[1,2,4]triazolo[1,5-a]pyridin-7-yl)-2,6-difluorophenoxy)-3,3-difluoro-2-phenylpentan-2-ol] | 1.7 | 4.8 | – | – | 0.6 | – | – |
| CC(O)(c1ccc(F)cc1)C(F)(F)CCOc1ccc(Cl)c(-c2ccn3nc(N)nc3c2)n1 (single isomer, unassigned) [Example 80, 5-((6-(2-amino-[1,2,4]triazolo[1,5-a]pyridin-7-yl)-5-chloropyridin-2-yl)oxy)-3,3-difluoro-2-(4-fluorophenyl)pentan-2-ol] | 5.9 | 5.6 | – | – | 6.8 | – | – |
| Cc1ccc(-c2ccn3nc(N)nc3c2)c(F)c1C(=O)NCC(F)(F)C(O)c1ccc(F)cc1 (stereo not drawn) [Example 30 from WO2022/086828, reference compound] | 35 | 43 | – | – | – | – | – |

Second part, led by results:

| efflux ratio at 2 h, 0.1 uM [2] | efflux ratio at 2 h, 0.1 uM [3] | PGP (efflux ratio) [2] | BCRP (efflux ratio) [3] | Structure (SMILES) | IC50 [1] [nM] | IC50 [4] [nM] | IC50 ([1]; Homo sapiens) [nM] |
| --- | --- | --- | --- | --- | --- | --- | --- |
| – | – | 1.5 | 1.7 | CC(O)(c1ccc(F)cc1)C(F)(F)CCOc1c(Cl)ccc(-c2ccn3nc(N)nc3c2)c1F (single isomer, unassigned) [Example 4, 5-(3-(2-amino-[1,2,4]triazolo[1,5-a]pyridin-7-yl)-6-chloro-2-fluorophenoxy)-3,3-difluoro-2-(4-fluorophenyl)pentan-2-ol] | 0.5 | – | – |
| 1.4 | 2.9 | – | – | [2H]C([2H])(CC(F)(F)C(C)(O)c1ccc(F)cc1)Oc1c(F)ccc(-c2ccn3nc(N)nc3c2)c1F (single isomer, unassigned) [Example 15, 5-(3-(2-amino-[1,2,4]triazolo[1,5-a]pyridin-7-yl)-2,6-difluorophenoxy)-3,3-difluoro-2-(4-fluorophenyl)pentan-5,5-d2-2-ol] | 0.3 | – | – |
| 1.6 | 2.5 | – | – | CC(O)(c1ccc(F)cc1)C(F)(F)CCOc1c(F)cc(F)c(-c2ccn3nc(N)nc3c2)c1F (single isomer, unassigned) [Example 29, 5-(3-(2-amino-[1,2,4]triazolo[1,5-a]pyridin-7-yl)-2,4,6-trifluorophenoxy)-3,3-difluoro-2-(4-fluorophenyl)pentan-2-ol] | – | 4 | – |
| 2.5 | 3 | – | – | CC(O)(c1ccc(F)cc1)C(F)(F)CCOc1c(F)c(F)cc(-c2ccn3nc(N)nc3c2)c1F (single isomer, unassigned) [Example 30, 5-(3-(2-amino-[1,2,4]triazolo[1,5-a]pyridin-7-yl)-2,5,6-trifluorophenoxy)-3,3-difluoro-2-(4-fluorophenyl)pentan-2-ol] | – | 8 | – |
| 1.5 | 4 | – | – | C[C@](O)(c1ccc(F)cc1)C(F)(F)CCOc1c(F)ccc(-c2ccn3nc(N)nc3c2)c1F (single isomer, unassigned) [Example 49, 5-(3-(2-amino-[1,2,4]triazolo[1,5-a]pyridin-7-yl)-2,6-difluorophenoxy)-3,3-difluoro-2-(4-fluorophenyl)pentan-2-ol] | – | – | 34 |
| 1.6 | 2.4 | – | – | C[C@@](O)(c1ccc(F)cc1)C(F)(F)CCOc1c(F)ccc(-c2ccn3nc(N)nc3c2)c1F (single isomer, unassigned) [Example 50, 5-(3-(2-amino-[1,2,4]triazolo[1,5-a]pyridin-7-yl)-2,6-difluorophenoxy)-3,3-difluoro-2-(4-fluorophenyl)pentan-2-ol] | – | – | 0.4 |
| 1.5 | 1.7 | – | – | CC(O)(c1ccc(F)cc1)C(F)(F)CCOc1c(Cl)ccc(-c2ccn3nc(N)nc3c2)c1F (single isomer, unassigned) [Example 52, 5-(3-(2-amino-[1,2,4]triazolo[1,5-a]pyridin-7-yl)-6-chloro-2-fluorophenoxy)-3,3-difluoro-2-(4-fluorophenyl)pentan-2-ol] | 0.5 | – | – |
